Experimental data as given in US9023986B2, “Glucose-dependent insulinotropic peptide analogs” (Hoffmann-La Roche Inc., priority 2010, dated 2015).

Biological target: T1, human GIPR (Homo sapiens, UniProt P48546)
T1 construct: host or cells: CHO-K1
T1 sequence (P48546 22-466): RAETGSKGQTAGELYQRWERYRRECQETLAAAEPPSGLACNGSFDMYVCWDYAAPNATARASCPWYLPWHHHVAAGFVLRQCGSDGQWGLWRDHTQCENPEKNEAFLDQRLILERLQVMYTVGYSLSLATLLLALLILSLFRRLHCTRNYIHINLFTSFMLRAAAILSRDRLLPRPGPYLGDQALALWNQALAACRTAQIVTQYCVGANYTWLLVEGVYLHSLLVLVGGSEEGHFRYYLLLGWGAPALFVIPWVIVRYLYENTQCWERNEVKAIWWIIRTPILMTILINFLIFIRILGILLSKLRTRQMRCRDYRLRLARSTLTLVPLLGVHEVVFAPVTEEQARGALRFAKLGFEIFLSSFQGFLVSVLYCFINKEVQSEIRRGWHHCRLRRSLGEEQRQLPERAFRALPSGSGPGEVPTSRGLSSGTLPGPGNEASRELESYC
Assay: cAMP production in CHO-K1 cells expressing human GIPR (LANCE cAMP assay)
Type: cell-based
Details: for Emax: CHO-K1, read-out: % activation of cAMP (maximal stimulation)
Protocol: CHO—K1 cells expressing human GIPR were obtained from DiscoverX Corporation (Fremont, Calif.). The cells were cultured in Ham's F-12 nutrient media supplemented with 10% foetal bovine serum, 800 μg/ml geneticin, 300 μg/ml hydromycin, 2 mM L-glutamine, and Penicillin-streptomycin (100 units, 100 μg) at 37° C. in a 5% CO2 incubator. The cells were harvested at 90% confluence.
The cells were suspended in Ham's F-12 nutrient media to a concentration of 200,000 cells/ml. The cells were then plated in a 384 well plate at with […] of the suspension added per well. The cells were incubated overnight at 37° C. in a 5% CO2 incubator.
The activity of the compounds was determined by stimulating the CHO—K1 cells with the test compound, and measuring the levels of cAMP produced. The activity of the compounds was compared to the activity of native GIP, as GIP stimulates cAMP production. 6 μl of the test compound in stimulation buffer (990 ml Hank's Balanced Salt solution (HBSS) (1×) (Invitrogen Corp #14025-092), 10 ml Hepes buffer solution (1 mol·L) (Invitrogen Corp 15630-080), 1 g BSA (final 0.1%), and 1 ml IBMX 250 mM stock prepared fresh in DMSO (Sigma-Aldrich 15879)) were added to cells, followed by 6 μl of Alexa Fluor® 647-anti cAMP antibody (Perkin Elmer) in stimulation buffer. […] The well plate was centrifuged for 3 min at 300 rpm, and incubated at room temperature for 45 minutes. 12 μl of detection mixture (biotin cAMP and EUW8044 labeled streptavidin (Eu-SA) in cAMP Detection Buffer (Perkin Elmer)) was added and incubated for 60 min at room temperature.
The levels of cAMP produced were measured according to the detailed protocol outlined in the Perkin Elmer LANCE cAMP Assay Perkin Elmer Lance cAMP Kit manual. The activity of the compounds was compared to the activity of native GIP.
The plates are read on a TRF detection instrument, EnVision® (Perkin Elmer) (excitation at 340 nm and emission at 665 nm). The values of the cAMP signal are obtained from the standard cAMP curve and used to determine the amount of maximal stimulation, and EC50 for stimulating the cAMP signal.

| SMILES | EC50 [nM] | Emax [%] |
| --- | --- | --- |
| CC[C@H](C)[C@H](NC(=O)[C@H](CO)NC(=O)[C@H](Cc1ccc(O)cc1)NC(=O)[C@H](CC(=O)O)NC(=O)[C@H](CO)NC(=O)[C@@H](NC(=O)[C@H](Cc1ccccc1)NC(=O)[C@@H](NC(=O)CNC(=O)[C@H](CCC(=O)O)NC(=O)[C@H](C)NC(=O)[C@@H](Cc1cccnc1)NC(C)=O)[C@@H](C)O)[C@@H](C)CC)C(=O)N[C@@H](C)C(=O)N[C@@H](CCSC)C(=O)N[C@@H](CC(=O)O)C(=O)N[C@@H](CCCCN)C(=O)N[C@H](C(=O)N[C@@H](Cc1c[nH]cn1)C(=O)N[C@@H](CCC(N)=O)C(=O)N[C@@H](CCC(N)=O)C(=O)N[C@@H](CC(=O)O)C(=O)N[C@@H](Cc1ccccc1)C(=O)N[C@H](C(=O)N[C@@H](CC(N)=O)C(=O)N[C@@H](Cc1c[nH]c2ccccc12)C(=O)N[C@@H](CC(C)C)C(=O)N[C@@H](CC(C)C)C(=O)N[C@@H](C)C(=O)N[C@@H](CCC(N)=O)C(=O)N[C@@H](CCCCN)C(N)=O)C(C)C)[C@@H](C)CC [Example 11] | 0.08 | 102 |
| CC[C@H](C)[C@H](NC(=O)[C@H](CO)NC(=O)[C@H](Cc1ccc(O)cc1)NC(=O)[C@H](CC(=O)O)NC(=O)[C@H](CO)NC(=O)[C@@H](NC(=O)[C@H](Cc1ccccc1)NC(=O)[C@@H](NC(=O)CNC(=O)[C@H](CCC(=O)O)NC(=O)[C@H](C)NC(=O)[C@@H](Cc1c[nH]c2ccccc12)NC(C)=O)[C@@H](C)O)[C@@H](C)CC)C(=O)N[C@@H](C)C(=O)N[C@@H](CCSC)C(=O)N[C@@H](CC(=O)O)C(=O)N[C@@H](CCCCN)C(=O)N[C@H](C(=O)N[C@@H](Cc1c[nH]cn1)C(=O)N[C@@H](CCC(N)=O)C(=O)N[C@@H](CCC(N)=O)C(=O)N[C@@H](CC(=O)O)C(=O)N[C@@H](Cc1ccccc1)C(=O)N[C@H](C(=O)N[C@@H](CC(N)=O)C(=O)N[C@@H](Cc1c[nH]c2ccccc12)C(=O)N[C@@H](CC(C)C)C(=O)N[C@@H](CC(C)C)C(=O)N[C@@H](C)C(=O)N[C@@H](CCC(N)=O)C(=O)N[C@@H](CCCCN)C(N)=O)C(C)C)[C@@H](C)CC [Example 10] | 0.1 | 102 |
| CC[C@H](C)[C@H](NC(=O)[C@H](CO)NC(=O)[C@H](Cc1ccc(O)cc1)NC(=O)[C@H](CC(=O)O)NC(=O)[C@H](CO)NC(=O)[C@@H](NC(=O)[C@H](Cc1ccccc1)NC(=O)[C@@H](NC(=O)CNC(=O)[C@H](CCC(=O)O)NC(=O)[C@H](C)NC(=O)[C@@H](Cc1ccccc1Cl)NC(C)=O)[C@@H](C)O)[C@@H](C)CC)C(=O)N[C@@H](C)C(=O)N[C@@H](CCSC)C(=O)N[C@@H](CC(=O)O)C(=O)N[C@@H](CCCCN)C(=O)N[C@H](C(=O)N[C@@H](Cc1c[nH]cn1)C(=O)N[C@@H](CCC(N)=O)C(=O)N[C@@H](CCC(N)=O)C(=O)N[C@@H](CC(=O)O)C(=O)N[C@@H](Cc1ccccc1)C(=O)N[C@H](C(=O)N[C@@H](CC(N)=O)C(=O)N[C@@H](Cc1c[nH]c2ccccc12)C(=O)N[C@@H](CC(C)C)C(=O)N[C@@H](CC(C)C)C(=O)N[C@@H](C)C(=O)N[C@@H](CCC(N)=O)C(=O)N[C@@H](CCCCN)C(N)=O)C(C)C)[C@@H](C)CC [Example 12] | 0.121 | 104 |
| CC[C@H](C)[C@H](NC(=O)[C@H](CO)NC(=O)[C@H](Cc1ccc(O)cc1)NC(=O)[C@H](CC(=O)O)NC(=O)[C@H](CO)NC(=O)[C@@H](NC(=O)[C@H](Cc1ccccc1)NC(=O)[C@@H](NC(=O)CNC(=O)[C@H](CCC(=O)O)NC(=O)[C@H](C)NC(=O)[C@@H](Cc1ccccc1F)NC(C)=O)[C@@H](C)O)[C@@H](C)CC)C(=O)N[C@@H](C)C(=O)N[C@@H](CCSC)C(=O)N[C@@H](CC(=O)O)C(=O)N[C@@H](CCCCN)C(=O)N[C@H](C(=O)N[C@@H](Cc1c[nH]cn1)C(=O)N[C@@H](CCC(N)=O)C(=O)N[C@@H](CCC(N)=O)C(=O)N[C@@H](CC(=O)O)C(=O)N[C@@H](Cc1ccccc1)C(=O)N[C@H](C(=O)N[C@@H](CC(N)=O)C(=O)N[C@@H](Cc1c[nH]c2ccccc12)C(=O)N[C@@H](CC(C)C)C(=O)N[C@@H](CC(C)C)C(=O)N[C@@H](C)C(=O)N[C@@H](CCC(N)=O)C(=O)N[C@@H](CCCCN)C(N)=O)C(C)C)[C@@H](C)CC [Example 15] | 0.0075 | 99.8 |
| CC[C@H](C)[C@H](NC(=O)[C@H](CO)NC(=O)[C@H](Cc1ccc(O)cc1)NC(=O)[C@H](CC(=O)O)NC(=O)[C@H](CO)NC(=O)[C@@H](NC(=O)[C@H](Cc1ccccc1)NC(=O)[C@@H](NC(=O)CNC(=O)[C@H](CCC(=O)O)NC(=O)[C@H](C)NC(=O)[C@@H](Cc1cccc(F)c1)NC(C)=O)[C@@H](C)O)[C@@H](C)CC)C(=O)N[C@@H](C)C(=O)N[C@@H](CCSC)C(=O)N[C@@H](CC(=O)O)C(=O)N[C@@H](CCCCN)C(=O)N[C@H](C(=O)N[C@@H](Cc1c[nH]cn1)C(=O)N[C@@H](CCC(N)=O)C(=O)N[C@@H](CCC(N)=O)C(=O)N[C@@H](CC(=O)O)C(=O)N[C@@H](Cc1ccccc1)C(=O)N[C@H](C(=O)N[C@@H](CC(N)=O)C(=O)N[C@@H](Cc1c[nH]c2ccccc12)C(=O)N[C@@H](CC(C)C)C(=O)N[C@@H](CC(C)C)C(=O)N[C@@H](C)C(=O)N[C@@H](CCC(N)=O)C(=O)N[C@@H](CCCCN)C(N)=O)C(C)C)[C@@H](C)CC [Example 16] | 0.058 | 98 |
